Consider 16 molecules from US6878722B2, “Substituted cycloalkyl P1′ hepatitis C virus inhibitors” (Bristol-Myers Squibb Company, priority 2002, dated 2005).

pEC50, pIC50: −log10 of the molar value.

For assay [1], the system named is HCV replicon in Huh7 cells. Description: HCV replicon cell-based assay (FRET). The note with it: Hepatitis C virus, Huh-7; HCV replicon; read-out: EC50 range. In short, it runs like this:
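Huh7 cells stably carrying a genotype 1b HCV replicon (IRES-neo-EMCV-IRES-NS3-NS5B) were treated with compound for 4 days at 37 °C in 0.5% DMSO final. Lysates containing 10 μM FRET peptide RET S1 were read kinetically at 340/490 nm to give NS3 protease activity, from which EC50 was derived.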

In assay [2] the target is T1, HCV NS3/4A protease complex (BMS strain, genotype 1a) (Hepatitis C virus genotype 1a, UniProt P27958, C1454S).
T1 construct: DNA encoding the recombinant HCV NS3/4A protease complex (amino acids 1027 to 1711) for these strains; inferred from the pET21b vector and Ni-NTA purification; made in house; host or cells: Escherichia coli BL21 (DE3), pET21b
T1 sequence (P27958 1658-1714, looked up, stated change not applied): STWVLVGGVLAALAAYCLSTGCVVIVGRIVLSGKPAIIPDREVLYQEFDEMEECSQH
T1 sequence (P27958 1027-1657, looked up, stated change not applied): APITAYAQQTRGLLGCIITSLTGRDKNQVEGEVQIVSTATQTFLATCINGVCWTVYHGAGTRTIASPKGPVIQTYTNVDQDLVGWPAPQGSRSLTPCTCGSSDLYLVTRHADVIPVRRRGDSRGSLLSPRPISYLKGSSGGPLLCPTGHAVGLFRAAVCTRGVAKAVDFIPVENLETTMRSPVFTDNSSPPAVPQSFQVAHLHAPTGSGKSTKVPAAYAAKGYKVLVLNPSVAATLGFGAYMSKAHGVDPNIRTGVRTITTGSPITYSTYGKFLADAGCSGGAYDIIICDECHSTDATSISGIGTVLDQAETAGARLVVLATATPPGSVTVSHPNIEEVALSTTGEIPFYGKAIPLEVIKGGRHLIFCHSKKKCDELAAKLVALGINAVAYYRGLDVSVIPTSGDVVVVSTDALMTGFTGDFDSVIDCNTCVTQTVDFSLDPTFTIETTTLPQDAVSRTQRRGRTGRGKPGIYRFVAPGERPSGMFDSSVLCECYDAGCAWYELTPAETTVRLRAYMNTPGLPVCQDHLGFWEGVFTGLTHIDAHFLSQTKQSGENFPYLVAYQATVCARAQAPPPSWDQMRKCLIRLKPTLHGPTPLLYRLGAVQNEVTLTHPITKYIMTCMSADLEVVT
Description: Recombinant HCV NS3/4A protease complex FRET peptide assay, BMS strain. The class given is biochemical. Particulars: IC50 range, NS3/4A BMS Strain. In short, it runs like this:
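Recombinant NS3/4A complex (aa 1027–1711) with C-terminal three-lysine tail, C1711G and C1454S, expressed in E. coli BL21(DE3) and purified by Ni-NTA then Superdex-S200. Inhibition of the complex from each strain measured in vitro by FRET peptide cleavage.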

For `C=C[C@@H]1C[C@]1(NC(=O)[C@@H]1C[C@@H](Oc2cc(-c3ccccc3)nc3cc(OC)ccc23)CN1C(=O)[C@@H](NC(=O)OC(C)(C)C)C(C)(C)C)C(=O)NS(=O)(=O)C1(CCOC)CC1` [Compound 35, {1-[2-{1-[1-(2-Methoxy-ethyl)-cyclopropanesulfonylaminocarbonyl]-2-vinyl-cyclopropylcarbamoyl}-4-(7-methoxy-2-phenyl-quinolin-4-yloxy)-pyrrolidine-1-carbonyl]-2,2-dimethyl-propyl}-carbamic acid tert-butyl ester], in assay [1], the pEC50 is greater than 7.30. For the same molecule, the pIC50 in assay [2] is greater than 7.30.
Take `C=C[C@@H]1C[C@]1(NC(=O)[C@@H]1C[C@@H](Oc2cc(-c3ccccc3)nc3cc(OC)ccc23)CN1C(=O)[C@@H](NC(=O)OC(C)(C)C)C(C)(C)C)C(=O)NS(=O)(=O)C1(CCOCc2ccccc2)CC1` [Compound 36, {1-[2-{1-[1-(2-Benzyloxy-ethyl)-cyclopropanesulfonylaminocarbonyl]-2-vinyl-cyclopropylcarbamoyl}-4-(7-methoxy-2-phenyl-quinolin-4-yloxy)-pyrrolidine-1-carbonyl]-2,2-dimethyl-propyl}-carbamic acid tert-butyl ester]: in assay [1], the pEC50 is greater than 7.30. Also, the pIC50 in assay [2] was greater than 7.30.
As to `C=C[C@@H]1C[C@]1(NC(=O)[C@@H]1C[C@@H](Oc2cc(-c3ccccc3)nc3cc(OC)ccc23)CN1C(=O)[C@@H](NC(=O)OC(C)(C)C)C(C)(C)C)C(=O)NS(=O)(=O)C1(COC(C)C)CC1` [Compound 37, {1-[2-[1-(1-Isopropoxymethyl-cyclopropanesulfonylaminocarbonyl)-2-vinyl-cyclopropylcarbamoyl]-4-(7-methoxy-2-phenyl-quinolin-4-yloxy)-pyrrolidine-1-carbonyl]-2,2-dimethyl-propyl}-1-carbamic acid tert-butyl ester], in assay [1], the pEC50 was greater than 7.30. Also, the pIC50 in assay [2] was greater than 7.30.
On to `C=C[C@@H]1C[C@]1(NC(=O)[C@@H]1C[C@@H](Oc2cc(-c3ccccc3)nc3cc(OC)ccc23)CN1C(=O)[C@@H](NC(=O)OC(C)(C)C)C(C)(C)C)C(=O)NS(=O)(=O)C1(Cl)CC1` [Compound 38, {1-[2-[1-(1-Chloro-cyclopropanesulfonylaminocarbonyl)-2-vinyl-cyclopropylcarbamoyl]-4-(7-methoxy-2-phenyl-quinolin-4-yloxy)-pyrrolidine-1-carbonyl]-2,2-dimethyl-propyl}-carbamic acid tert-butyl ester], for which the pEC50 in assay [1] is greater than 7.30. In assay [2], the pIC50 was greater than 7.30.
Consider `C=C[C@@H]1C[C@]1(NC(=O)[C@@H]1C[C@@H](Oc2cc(-c3ccccc3)nc3cc(OC)ccc23)CN1C(=O)[C@@H](NC(=O)OC(C)(C)C)C(C)(C)C)C(=O)NS(=O)(=O)C1(I)CC1` [Compound 39, {1-[2-[1-(1-Iodo-cyclopropanesulfonylaminocarbonyl)-2-vinyl-cyclopropylcarbamoyl]-4-(7-methoxy-2-phenyl-quinolin-4-yloxy)-pyrrolidine-1-carbonyl]-2,2-dimethyl-propyl}-carbamic acid tert-butyl ester], for which the pEC50 in assay [1] is greater than 7.30. Further, in assay [2], the pIC50 was greater than 7.30.
In the case of `C=C[C@@H]1C[C@]1(NC(=O)[C@@H]1C[C@@H](Oc2cc(-c3ccccc3)nc3cc(OC)ccc23)CN1C(=O)[C@@H](NC(=O)OC(C)(C)C)C(C)(C)C)C(=O)NS(=O)(=O)C1(Cc2ccc(F)cc2)CC1` [Compound 40, {1-[2-{1-[1-(4-Fluoro-benzyl)-cyclopropanesulfonylaminocarbonyl]-2-vinyl-cyclopropylcarbamoyl}-4-(7-methoxy-2-phenyl-quinolin-4-yloxy)-pyrrolidine-1-carbonyl]-2,2-dimethyl-propyl}-carbamic acid tert-butyl ester], the pEC50 in assay [1] was 6.30 to 7.30. The negative logarithm of the IC50 (pIC50) in assay [2] is greater than 7.30.
In the case of `C=C[C@@H]1C[C@]1(NC(=O)[C@@H]1C[C@@H](Oc2cc(-c3ccccc3)nc3cc(OC)ccc23)CN1C(=O)[C@@H](NC(=O)OC(C)(C)C)C(C)(C)C)C(=O)NS(=O)(=O)C1(Cc2ccccc2F)CC1` [Compound 41, {1-[2-{1-[1-(2-Fluoro-benzyl)-cyclopropanesulfonylaminocarbonyl]-2-vinyl-cyclopropylcarbamoyl}-4-(7-methoxy-2-phenyl-quinolin-4-yloxy)-pyrrolidine-1-carbonyl]-2,2-dimethyl-propyl}-carbamic acid tert-butyl ester], the pEC50 in assay [1] is 6.30 to 7.30. For the same molecule, in assay [2], the pIC50 was greater than 7.30.
In the same order, the values of `C=C[C@@H]1C[C@]1(NC(=O)[C@@H]1C[C@@H](Oc2cc(-c3ccccc3)nc3cc(OC)ccc23)CN1C(=O)[C@@H](NC(=O)OC(C)(C)C)C(C)(C)C)C(=O)NS(=O)(=O)C1(Cc2ccc(OC)cc2)CC1` [Compound 42, {1-[2-{1-[1-(4-Methoxy-benzyl)-cyclopropanesulfonylaminocarbonyl]-2-vinyl-cyclopropylcarbamoyl}-4-(7-methoxy-2-phenyl-quinolin-4-yloxy)-pyrrolidine-1-carbonyl]-2,2-dimethyl-propyl}-carbamic acid tert-butyl ester] are 6.30 to 7.30 and 6.30 to 7.30.
In the same order, the values of `C=C[C@@H]1C[C@]1(NC(=O)[C@@H]1C[C@@H](Oc2cc(-c3ccccc3)nc3cc(OC)ccc23)CN1C(=O)[C@@H](NC(=O)OC(C)(C)C)C(C)(C)C)C(=O)NS(=O)(=O)C1(C(=C)C)CC1` [Compound 43, {1-[2-[1-(1-Isopropenyl-cyclopropanesulfonylaminocarbonyl)-2-vinyl-cyclopropylcarbamoyl]-4-(7-methoxy-2-phenyl-quinolin-4-yloxy)-pyrrolidine-1-carbonyl]-2,2-dimethyl-propyl}-carbamic acid tert-butyl ester] are greater than 7.30 and greater than 7.30.
On the same counts, the results for `C=C[C@@H]1C[C@]1(NC(=O)[C@@H]1C[C@@H](Oc2cc(-c3ccccc3)nc3cc(OC)ccc23)CN1C(=O)[C@@H](NC(=O)OC(C)(C)C)C(C)(C)C)C(=O)NS(=O)(=O)C1(C=C(C)C)CC1` [Compound 44, [1-(4-(7-Methoxy-2-phenyl-quinolin-4-yloxy)-2-{1-[1-(2-methyl-propenyl)-cyclopropanesulfonylaminocarbonyl]-2-vinyl-cyclopropylcarbamoyl}-pyrrolidine-1-carbonyl)-2,2-dimethyl-propyl]-carbamic acid tert-butyl ester] are 6.30 to 7.30 and greater than 7.30.
For `C=C[C@@H]1C[C@]1(NC(=O)[C@@H]1C[C@@H](Oc2cc(-c3ccccc3)nc3cc(OC)ccc23)CN1C(=O)[C@@H](NC(=O)OC(C)(C)C)C(C)(C)C)C(=O)NS(=O)(=O)C1(CC#CCC)CC1` [Compound 45, (1-{4-(7-Methoxy-2-phenyl-quinolin-4-yloxy)-2-[1-(1-pent-2-ynyl-cyclopropanesulfonylaminocarbonyl)-2-vinyl-cyclopropylcarbamoyl]-pyrrolidine-1-carbonyl}-2,2-dimethyl-propyl)-carbamic acid tert-butyl ester], the pEC50 in assay [1] is greater than 7.30. Further, the pIC50 in assay [2] is greater than 7.30.
On to `C=C[C@@H]1C[C@]1(NC(=O)[C@@H]1C[C@@H](Oc2cc(-c3ccccc3)nc3cc(OC)ccc23)CN1C(=O)[C@@H](NC(=O)OC(C)(C)C)C(C)(C)C)C(=O)NS(=O)(=O)C1(Cc2ncoc2-c2ccccc2)CC1` [Compound 46], for which the pEC50 in assay [1] is greater than 7.30. Also, the pIC50 in assay [2] is greater than 7.30.
`C=C[C@@H]1C[C@]1(NC(=O)[C@@H]1C[C@@H](Oc2cc(-c3ccccc3)nc3cc(OC)ccc23)CN1C(=O)[C@@H](NC(=O)OC(C)(C)C)C(C)(C)C)C(=O)NS(=O)(=O)C1(Cc2ccncc2)CC1` [Compound 47]: the pEC50 in assay [1] was greater than 7.30. Moreover, the pIC50 in assay [2] is greater than 7.30.
As to `C=C[C@@H]1C[C@]1(NC(=O)[C@@H]1C[C@@H](Oc2cc(-c3ccccc3)nc3cc(OC)ccc23)CN1C(=O)[C@@H](NC(=O)OC(C)(C)C)C(C)(C)C)C(=O)NS(=O)(=O)C1(Cc2ccccn2)CC1` [Compound 48, (1-{4-(7-Methoxy-2-phenyl-quinolin-4-yloxy)-2-[1-(1-pyridin-2-ylmethyl-cyclopropanesulfonylaminocarbonyl)-2-vinyl-cyclopropylcarbamoyl]-pyrrolidine-1-carbonyl}-2,2-dimethyl-propyl)-carbamic acid tert-butyl ester], the pEC50 in assay [1] is greater than 7.30. Also, the pIC50 in assay [2] was greater than 7.30.
Regarding `C=C[C@@H]1C[C@]1(NC(=O)[C@@H]1C[C@@H](Oc2cc(-c3ccccc3)nc3cc(OC)ccc23)CN1C(=O)[C@@H](NC(=O)OC(C)(C)C)C(C)(C)C)C(=O)NS(=O)(=O)C1(Cc2cccnc2)CC1` [Compound 49, (1-{4-(7-Methoxy-2-phenyl-quinolin-4-yloxy)-2-[1-(1-pyridin-3-ylmethyl-cyclopropanesulfonylaminocarbonyl)-2-vinyl-cyclopropylcarbamoyl]-pyrrolidine-1-carbonyl}-2,2-dimethyl-propyl)-carbamic acid tert-butyl], the pEC50 in assay [1] was 6.30 to 7.30. Moreover, the pIC50 in assay [2] was greater than 7.30.
Take `C=C[C@@H]1C[C@]1(NC(=O)[C@@H]1C[C@@H](Oc2cc(-c3ccccc3)nc3cc(OC)ccc23)CN1C(=O)[C@@H](NC(=O)OC(C)(C)C)C(C)(C)C)C(=O)NS(=O)(=O)C1(Cc2c(C)noc2C)CC1` [Compound 50, {1-[2-{1-[1-(3,5-Dimethyl-isoxazol-4-ylmethyl)-cyclopropanesulfonylaminocarbonyl]-2-vinyl-cyclopropylcarbamoyl}-4-(7-methoxy-2-phenyl-quinolin-4-yloxy)-pyrrolidine-1-carbonyl]-2,2-dimethyl-propyl}-carbamic acid tert-butyl ester]: in assay [1], the pEC50 was 5.30 to 6.30. For the same molecule, the pIC50 in assay [2] was 6.30 to 7.30.
